Tests used:
Type in all cases: functional, cell-based
SK-MEL-2 = assay: Anticancer activity against human SK-MEL-2 cells by SRB assay
BV-2 = assay: Antiinflammatory activity in mouse BV2 cells assessed as inhibition of lipopolysaccharide induced NO production
XF498 = assay: Anticancer activity against human XF498 cells by SRB assay
SK-OV-3 = assay: Anticancer activity against human SKOV3 cells by SRB assay
A549 = assay: Anticancer activity against human A549 cells by SRB assay

Compound	IC50 (SK-MEL-2) [µM]	IC50 (BV-2) [µM]	IC50 (XF498) [µM]	IC50 (SK-OV-3) [µM]	IC50 (A549) [µM]
COc1cc([C@@H](O)[C@@H](CO)Oc2ccc(CCCO)cc2OC)ccc1O	> 30	58.5	26.6	> 30	> 30
COc1cc([C@@H]2c3cc4c(cc3[C@@H](O[C@@H]3O[C@@H]5CO[C@@H](C)O[C@H]5[C@H](O)[C@H]3O)[C@H]3COC(=O)[C@H]23)OCO4)cc(OC)c1O [ETOPOSIDE]	–	–	–	1.81	–
COc1cc(C[C@H]2COC(=O)[C@@H]2Cc2ccc(O)c(OC)c2)ccc1O [MATAIRESINOL]	> 30	94.5	23.7	> 30	23.8
COc1cc(C(=O)CCO)cc(OC)c1O	> 30	–	24.3	> 30	> 30
COc1ccc(CC(=O)O)cc1	> 30	–	28.1	> 30	> 30
COc1cc([C@H]2Oc3c(OC)cc(CCCO)cc3[C@@H]2CO)ccc1O [DIHYDRODEHYDRODICONIFERY ALCOHOL]	23.3	28.8	13.4	> 30	22.4
COc1cc(C[C@H]2CO[C@H](c3ccc(O)c(OC)c3)[C@H]2CO)ccc1O [LARICIRESINOL]	> 30	51.8	11.7	> 30	24.5
COc1ccc([C@H](O)[C@@H](CO)Oc2c(OC)cc([C@@H]3Oc4c(OC)cc(CCCO)cc4[C@H]3CO)cc2OC)cc1OC [BERBIKONOL]	27.3	90.9	19.3	> 30	> 30
COc1cc([C@@H]2OC[C@@H]3[C@H]2CO[C@H]3c2cc(OC)c(O)c(OC)c2)cc(OC)c1O	14.5	13.5	8.82	> 30	> 30
COc1cc(C[C@@H](CO)[C@H](CO)Cc2ccc(O)c(OC)c2)ccc1O [(+)-SECOISOLARICIRESINOL]	21.5	87.6	18.8	> 30	> 30
COc1ccc(C[C@H]2CO[C@H](c3ccc(OC)c(OC)c3)[C@H]2CO)cc1OC	25.1	44.4	15.4	21.5	20.1
COc1cc([C@H]2c3c(cc(OC)c(O)c3OC)C[C@@H](CO)[C@@H]2CO)cc(OC)c1O	> 30	69.1	7.14	> 30	> 30
COc1cc([C@@H]2OC[C@H]3[C@@H]2CO[C@H]3c2ccc(O)c(OC)c2)ccc1O [(-)-PINORESINOL]	26.6	26.2	13.3	> 30	> 30
COc1cc(/C=C/C=O)ccc1O [CONIFERYL ALDEHYDE]	> 30	–	> 30	> 30	21.2
CNC(=N)NCCC[C@H](N)C(=O)O [TILARGININE]	–	17.1	–	–	–
COc1cc([C@@H]2OC[C@@H]3[C@H]2CO[C@H]3c2ccc(O[C@@H]3O[C@H](CO)[C@@H](O)[C@H](O)[C@H]3O)c(OC)c2)ccc1O	> 30	144	25.4	> 30	> 30
COc1cc(C(=O)CCO)ccc1O	> 30	–	28.4	> 30	> 30
COC(=O)[C@H](CO)c1cc(OC)c(O)c(OC)c1 [BERFUSSINOL]	27.2	–	> 30	> 30	> 30
COc1cc(C(=O)O)ccc1O [VANILLIC ACID]	> 30	–	> 30	> 30	> 30
COc1cc([C@@H]2c3c(cc(OC)c(O)c3OC)C[C@H](CO)[C@H]2CO)cc(OC)c1O	> 30	113	26.5	> 30	21.2
COc1cc(C[C@@H](CO)[C@](O)(CO)Cc2ccc(O)c(OC)c2)ccc1O	> 30	201	27.6	> 30	> 30
COc1cc([C@@H]2c3cc(O)c(OC)cc3C[C@H](CO)[C@H]2CO)ccc1O [(-)-ISOLARICIRESINOL]	24.9	152	22.8	> 30	20.2

Reference: ChEMBL document CHEMBL1759886, “Biological evaluation of phenolic constituents from the trunk of Berberis koreana” (Bioorg Med Chem Lett, 2011)
